The record followed here is US20070249670A1, “Glycogen Phosphorylase Inhibitor Compounds and Pharmaceutical Compositions Thereof” (SMITHKLINE BEECHAM CORPORATION, priority 2004, published 2007).

In this test the target is T1, human liver glycogen phosphorylase a (HLGPa) (Homo sapiens, UniProt P06737).
T1 construct: creating a full-length cDNA fused at the 5′ end to codons for methionine-glycine-alanine-histidine; 6xHis tag (leader Met-Gly-Ala-His6-Gly-Gly) (N); made in house; host or cells: E. coli (bacterial expression plasmid pTXK1007LTev)
T1 sequence (P06737 2-847 limits assumed): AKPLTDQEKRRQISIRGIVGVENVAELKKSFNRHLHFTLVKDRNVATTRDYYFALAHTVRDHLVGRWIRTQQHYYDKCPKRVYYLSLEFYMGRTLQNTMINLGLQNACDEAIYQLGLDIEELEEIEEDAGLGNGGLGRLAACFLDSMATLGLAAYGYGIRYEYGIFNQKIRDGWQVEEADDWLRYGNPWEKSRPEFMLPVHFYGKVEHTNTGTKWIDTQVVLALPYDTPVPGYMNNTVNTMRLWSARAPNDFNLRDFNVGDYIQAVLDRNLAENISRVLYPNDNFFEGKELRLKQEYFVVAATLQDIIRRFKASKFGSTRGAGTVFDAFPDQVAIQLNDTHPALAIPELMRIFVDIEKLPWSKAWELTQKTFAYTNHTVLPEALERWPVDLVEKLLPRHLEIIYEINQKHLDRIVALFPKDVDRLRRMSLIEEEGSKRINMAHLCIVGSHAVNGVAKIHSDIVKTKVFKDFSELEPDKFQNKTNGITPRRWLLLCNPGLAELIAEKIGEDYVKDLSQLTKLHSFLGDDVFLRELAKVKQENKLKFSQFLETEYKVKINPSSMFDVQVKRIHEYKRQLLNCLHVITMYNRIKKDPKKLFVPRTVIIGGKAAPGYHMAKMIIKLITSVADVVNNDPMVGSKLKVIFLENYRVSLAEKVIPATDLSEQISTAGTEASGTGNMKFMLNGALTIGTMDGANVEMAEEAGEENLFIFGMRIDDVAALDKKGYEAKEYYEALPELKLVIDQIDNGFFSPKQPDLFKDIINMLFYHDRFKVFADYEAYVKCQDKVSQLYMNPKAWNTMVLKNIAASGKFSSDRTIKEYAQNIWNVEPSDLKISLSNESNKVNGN
Put plainly: Human liver glycogen phosphorylase a enzymatic activity assay (coupled, fluorescent resorufin readout, with and without 10 mM glucose). It is filed as biochemical.

[1] abbreviates: human liver glycogen phosphorylase a, table does not say whether with or without 10 mM glucose.
Setting [2] is: human liver glycogen phosphorylase a enzymatic activity assay.

Counter-ions that a name gives are not always drawn.

Under setting [1], `O=C(Nc1cc(-c2ccccc2)ccc1C(=O)N[C@H](C(=O)O)C1CCCCC1)Nc1c(Cl)cc(OC(F)(F)F)cc1Cl` [Example 214, (2S)-Cyclohexyl{[(3-{[({2,6-dichloro-4-[(trifluoromethyl)oxy]phenyl}amino)carbonyl]amino}-4-biphenylyl)carbonyl]amino}ethanoic acid] had an IC50 of 23 nM.

`Cc1cccc(Cl)c1NC(=O)Nc1cc2ccccc2cc1C(=O)N[C@@H](CCCCN)C(=O)O` [Example 59, N-[3-({[(2-chloro-6-methylphenyl)amino]carbonyl}amino)-2-naphthoyl]-L-lysine trifluoroacetate] came in with a half-maximal inhibitory concentration (IC50) under setting [2] of 2990 nM.

For `COc1ccc(-c2cc(NC(=O)Nc3c(Cl)cccc3Cl)c(C(=O)N[C@H](C(=O)O)C3CCCCC3)s2)cc1` [Example 409, (2S)-cyclohexyl[({3-({[(2,6-dichlorophenyl)amino]carbonyl}amino)-5-[4-(methyloxy)phenyl]-2-thienyl}carbonyl)amino]ethanoic acid], the IC50 under setting [2] is 93 nM.

The compound `Cc1cc(C)c(NC(=O)Nc2cc3ccccc3cc2C(=O)N[C@H](C(=O)O)C2CCC(O)CC2)c(C)c1` (stereo partly drawn) [Example 502, (2S)-(4-hydroxycyclohexyl)({[3-({[(2,4,6-trimethylphenyl)amino]carbonyl}amino)-2-naphthalenyl]carbonyl}amino)ethanoic acid] displayed an IC50 under setting [2] of 13 nM.

On to `O=C(Nc1ccc(-c2ccccc2)cc1)Nc1cc2ccccc2cc1C(=O)NC1(C(=O)O)CCCCC1` [Example 513, 1-{[(3-{[(4-biphenylylamino)carbonyl]amino}-2-naphthalenyl)carbonyl]amino}cyclohexanecarboxylic acid], for which, under setting [2], the IC50 amounted to 7430 nM.

`Cc1ccccc1NC(=O)Nc1cc2ccccc2cc1C(=O)N[C@@H](Cc1ccccc1)C(=O)O` [Example 45, N-[3-({[(2-methylphenyl)amino]carbonyl}amino)-2-naphthoyl]-L-phenylalanine] showed a concentration for half-maximal inhibition (IC50) under setting [2] of 16900 nM.

Under setting [1], `COc1ccc(-c2ccc(C(=O)N[C@H](C(=O)O)C3CCCC3)c(NC(=O)Nc3c(C)cc(C)cc3C)c2)cc1` [Example 210, (2S)-Cyclopentyl({[4′-(methyloxy)-3-({[(2,4,6-trimethylphenyl)amino]carbonyl}amino)-4-biphenylyl]carbonyl}amino)ethanoic acid] showed a half-maximal inhibitory concentration (IC50) of 14 nM.

`Cc1cccc(C)c1NC(=O)Nc1cc(Cl)ccc1C(=O)N[C@H](C(=O)O)C1CCCCC1` [Example 157, (2S)-({[4-chloro-2-({[(2,6-dimethylphenyl)amino]carbonyl}amino)phenyl]carbonyl}amino)(cyclohexyl)ethanoic acid] came in with an IC50 under setting [2] of 242 nM.

For `Cc1cc(C)c(NC(=O)Nc2cc3ccccc3cc2C(=O)N[C@H](C(=O)O)[C@H]2CCCC(O)C2)c(C)c1` (stereo partly drawn) [Example 359, (2S)-[(1S)-3-hydroxycyclohexyl]({[3-({[(2,4,6-trimethylphenyl)amino]carbonyl}amino)-2-naphthalenyl]carbonyl}amino)ethanoic acid], the IC50 under setting [1] came to 6 nM.

The compound `O=C(Nc1ccccc1Cl)Nc1cc2ccccc2cc1C(=O)N[C@@H](Cc1c[nH]c2ccccc12)C(=O)O` [Example 58, N-[3-({[(2-chlorophenyl)amino]carbonyl}amino)-2-naphthoyl]-L-tryptophan trifluoroacetate] gave an IC50 under setting [2] of 4700 nM.

In turn, `Cc1cc(C)c(NC(=O)Nc2cc(F)ccc2C(=O)N[C@@](C)(C(=O)O)C2CCCCC2)c(C)c1` [Example 472, 2-cyclohexyl-N-{[4-fluoro-2-({[(2,4,6-trimethylphenyl)amino]carbonyl}amino)phenyl]carbonyl}-L-alanine] returned an IC50 under setting [2] of 160 nM.

Under setting [1], `O=C(Nc1cc(C(F)(F)F)cc(C(F)(F)F)c1)Nc1cc2ccccc2cc1C(=O)N[C@H](C(=O)O)C1CCCCC1` [Example 240, (2S)-[({3-[({[3,5-bis(trifluoromethyl)phenyl]amino}carbonyl)amino]-2-naphthalenyl}carbonyl)amino](cyclohexyl)ethanoic acid] registered an IC50 of 8180 nM.

Consider `O=C(Cc1c(Cl)cc(Cl)cc1Cl)Nc1cc2ccccc2cc1C(=O)N[C@H](C(=O)O)C1CCCCC1` [Example 162, (2S)-cyclohexyl[(3-{[(2,4,6-trichlorophenyl)acetyl]amino}-2-naphthoyl)amino]ethanoic acid], for which, under setting [2], the IC50 stood at 46 nM.

Compound `O=C(Nc1c(Cl)cc(Cl)cc1Cl)Nc1c(C(=O)N[C@H](C(=O)O)C2CCCCC2)oc2cc(Br)ccc12` [Example 326, (2S)-({[6-Bromo-3-({[(2,4,6-trichlorophenyl)amino]carbonyl}amino)-1-benzofuran-2-yl]carbonyl}amino)(cyclohexyl)ethanoic acid] gave an IC50 under setting [1] of 7390 nM.

On to `Cc1cccc(C)c1NC(=O)Nc1cc2ccccc2cc1C(=O)N[C@@H](CC(C)C)C(=O)O` [Example 24, N-[3-({[(2,6-dimethylphenyl)amino]carbonyl}amino)-2-naphthoyl]-L-leucine], for which, under setting [2], the IC50 is 1190 nM.

Compound `COc1ccc(-c2cc(NC(=O)Nc3c(C)cc(C)cc3C)c(C(=O)N3CCC[C@H]3C(=O)O)s2)cc1` [Example 447, 1-{[5-[4-(methyloxy)phenyl]-3-({[(2,4,6-trimethylphenyl)amino]carbonyl}amino)-2-thienyl]carbonyl}-L-proline] returned an IC50 under setting [2] of 26 nM.

On to `Cc1cccc(C(C)C)c1NC(=O)Nc1cc2ccccc2cc1C(=O)N[C@@H](C(=O)O)C1CCCCC1` [Example 109, (2R)-cyclohexyl{[3-({[(2-isopropyl-6-methylphenyl)amino]carbonyl}amino)-2-naphthoyl]amino}acetic acid], for which, under setting [2], the IC50 came out at 19800 nM.

`Cc1cc(C)c(NC(=O)Nc2cc(F)ccc2C(=O)N[C@@H](CC(=O)O)C(=O)O)c(C)c1` [Example 365, N-{[4-fluoro-2-({[(2,4,6-trimethylphenyl)amino]carbonyl}amino)phenyl]carbonyl}-L-aspartic acid] showed an IC50 under setting [1] of 1680 nM.

Under setting [1], `CNC(=O)Nc1ccc(C(=O)N[C@H](C(=O)O)C2CCCCC2)c(NC(=O)Nc2c(C)cc(C)cc2C)c1` [Example 206] came in with an IC50 of 96 nM.

Take `COc1ccc(-c2ccc(C(=O)N[C@H](C(=O)O)C3CCCCC3)c(NC(=O)Nc3c(C)cc(C)cc3C)c2)cc1` [Example 193, (2S)-Cyclohexyl({[4′-(methyloxy)-3-({[(2,4,6-trimethylphenyl)amino]carbonyl}amino)-4-biphenylyl]carbonyl}amino)ethanoic acid]: under setting [2], inhibition was half-maximal at 7 nM (IC50).

Regarding `Cc1cccc(Cl)c1NC(=O)Nc1cc2ccccc2cc1C(=O)N[C@@H](CCC(=O)O)C(=O)O` [Example 86, N-[3-({[(2-chloro-6-methylphenyl)amino]carbonyl}amino)-2-naphthoyl]-L-glutamic acid], under setting [2], the IC50 was found to be 700 nM.

As to `NC(=O)CC[C@H](NC(=O)c1cc2ccccc2cc1NC(=O)Nc1ccccc1Cl)C(=O)O` [Example 32, N-[3-({[(2-chlorophenyl)amino]carbonyl}amino)-2-naphthoyl]-L-glutamine], under setting [2], it took 41000 nM to reach half-maximal inhibition (IC50).

`O=C(Cc1c(Cl)cc(Cl)cc1Cl)Nc1cc(-c2ccccc2)ccc1C(=O)N[C@H](C(=O)O)C1CCCCC1` [Example 186, (2S)-Cyclohexyl{[(3-{[(2,4,6-trichlorophenyl)acetyl]amino}-4-biphenylyl)carbonyl]amino}ethanoic acid]: under setting [2], the IC50 amounted to 341 nM.

With `Cc1cccc(C)c1NC(=O)Nc1ccccc1C(=O)N[C@H](C(=O)O)C1CCCCC1` [Example 94, (2S)-cyclohexyl{[2-({[(2,6-dimethylphenyl)amino]carbonyl}amino)benzoyl]amino}acetic acid], 530 nM corresponded to half-maximal inhibition under setting [2] (IC50).
